{"source": "patent US6235707A", "about": "“Anticoagulant peptidyl-arginine aldehyde derivatives” (Gyogyszerkutato Intezet Kft., priority 1996, dated 2001)", "type_in_all_cases": "biochemical", "key": {"citrate plasma": {"system": "citrate plasma", "test": "activated partial thromboplastin time (APTT) plasma clotting test", "settings": "Table 3; twofold prolongation compared to control; read-out: A: anticoagulant IC50, APTT", "description": "Anticoagulant activity (i.e. inhibition of the proteolytic reactions in the process) is measured by anticoagulant tests, e.g. in the thrombin time (TT), activated partial thromboplastin time (APTT) and prothrombin time (PT) tests [E. J. W. Bovie et al., Mayo Clinic Laboratory Manual of Haemostasis; W. B. Saunders Co., Philadelphia (1971)]. Plasma, inhibited in spontaneous coagulation, e.g. citrate-plasma, is made to coagulate and the required coagulation time is measured. Upon the action of anticoagulants the coagulation time is prolonged proportionally to the inhibition of the reaction(s) in the process. The anticoagulant effect can be characterised by the substance concentration required to prolong the coagulation time twofold compared to the control (IC50). The effect of anticoagulants on individual coagulant proteases is measured by the amidolytic method [R. Lottenberg et al., Methods in Enzymol. 80, 341 (1981); G. Cleason, Blood Coagulation and Fibrinolysis 5, 411 (1994)]. The isolated active factor (e.g. thrombin, fXa) and its chromogen or fluorogen peptide-amide substrate are reacted in the presence or absence of the inhibitor, resp. The enzyme inhibiting action is characterised by the inhibitory constant (IC50) measured during amidolysis.\nIn the TT test coagulation is initiated by the thrombin added to the citrate plasma. In the system 22 pmol/ml of thrombin is functioning and its inhibition can be measured on the fibrinogen (one of the natural substrates of thrombin) in the presence of plasma components. In the APTT and PT tests the full coagulation process takes place. Depending on the activator fX is activated either by the extrinsic or the intrinsic pathway. The generated fXa activates prothrombin to thrombin which, in turn, triggers plasma coagulation. The coagulation time is prolonged if the enzymes or one of them is inhibited by the inhibitor. In the APTT and PT tests at most 40 pmol/ml Xa can be generated (this is the full amount of factor X present in both systems) while 150 pmol/ml (APTT) and 350 pmol/ml (PT) of thrombin are generated [B. Kaiser et al., Thromb. Res. 65, 157 (1992)].\nThe in vitro anticoagulant effects of the compounds of general formula (I) was measured by the prothrombin time (PT), activated partial thromboplastin time (APTT) and thrombin time (TT) tests [D. Bagdy et al., Thromb. Haemost. 67, 325 (1992)]. The fxa-inhibiting effect of the compounds was also determined using the Bz-Ile-Glu-Gly-Arg-pNA chromogen substrate (see method M6)."}, "clot-bound fXa": {"target": "T1, clot-bound fXa (Homo sapiens, UniProt P00742)", "T1 construct": "from tissue; host or cells: clot of recalcified human platelet-rich plasma", "T1 sequence (P00742 235-488 limits assumed)": "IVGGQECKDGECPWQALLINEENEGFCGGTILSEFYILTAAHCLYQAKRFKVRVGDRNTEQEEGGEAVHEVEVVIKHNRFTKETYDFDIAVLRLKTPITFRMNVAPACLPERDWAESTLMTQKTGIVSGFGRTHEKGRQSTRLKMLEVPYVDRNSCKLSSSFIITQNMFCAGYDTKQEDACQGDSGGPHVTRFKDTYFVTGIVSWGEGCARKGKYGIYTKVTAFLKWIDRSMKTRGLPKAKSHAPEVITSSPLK", "T1 sequence (P00742 41-179 partner limits assumed)": "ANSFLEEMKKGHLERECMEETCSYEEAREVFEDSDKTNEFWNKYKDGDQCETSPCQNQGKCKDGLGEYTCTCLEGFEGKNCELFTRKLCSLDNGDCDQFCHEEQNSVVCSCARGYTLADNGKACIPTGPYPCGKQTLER", "test": "inhibition of plasma clot-bound factor Xa (Methods M1, M2)", "settings": "text b187, well below", "description": "(§1) Plasma-clot was obtained by recalcificating platelet-rich human plasma, and fibrin gel by clotting human fibrinogen with human thrombin. For the activity measures of fXa and thrombin Z-D-Arg-Gly-Arg-pNA or Tos-Gly-Pro-Arg-pNA substrates were used in agreement with Methods M1-M3.\n(§2) Preparation of Clots from Human Plasma\n(§3) a) Platelet-rich plasma is prepared by centrifuging a 9:1 mixture of human blood and 3.8% sodium citrate solution for 5 min. at 240×g.\n(§4) b) 200 μl platelet-rich plasma and 80 μl 40 mM CaCl2 solution are allowed to stand at room temperature for 1 hour. The thus-formed clot is washed with 6×2 ml of 0.9% NaCl solution with gentle stirring to remove the residual enzymes (thrombin and factor Xa). The washing medium is assayed for thrombin-like activity as follows:\nc) To 400 μl of washing medium 100 μl of 1 mM Tos-Gly-Pro-Arg-pNA substrate solution is added, the mixture is incubated for 30 min at 37° C., then the reaction is stopped with 100 μl of 50% acetic acid. From this mixture 150 μl aliquots are applied onto a 96-well microtitre plate and the extinction coefficients are measured at 405 nm (ELISA READER SLT Laborinstrument GmbH, Austria). […]\nc) From each reaction vessel 150 μl is applied onto a 96 well microtitre plate and extinction coefficients are measured at 405 nm (ELISA READER SLT Laborinstrument GmbH, Austria). […]"}, "clot-bound thrombin": {"target": "T2, clot-bound thrombin (Homo sapiens, UniProt P00734)", "T2 construct": "from tissue; host or cells: clot of recalcified human platelet-rich plasma", "test": "inhibition of plasma clot-bound thrombin (Methods M1, M3)", "settings": "clot from platelet-rich human plasma; Tos-Gly-Pro-Arg-pNA substrate", "description": "as §1, §2, §3, §4\nc) To 400 μl of washing medium 100 μl of 1 mM Tos-Gly-Pro-Arg-pNA substrate solution is added, the mixture is incubated for 30 min at 37° C., then the reaction is stopped with 100 μl of 50% acetic acid. From this mixture 150 μl aliquots are applied onto a 96-well microtitre plate and the extinction coefficients are measured at 405 nm (ELISA READER SLT Laborinstrument GmbH, Austria). In case of efficient washing the extinction coefficient is smaller than 5% of that of the control.\nDetermination of the Inhibition of Clot-bound Thrombin\na) Solutions are made from the peptide inhibitors according to Method M2/a.\nb) After draining off the washing medium the clots (Method M1) are mixed with 400 μl of peptide solution (3 parallel samples with each concentration), then the samples are incubated for 5 min. at 37° C. together with a separate 400 μl buffer serving as control. Then 100 μl […] 1 mM Tos-Gly-Pro-Arg-pNA substrate solution is added and the incubation continued for further 30 min. at 37° C. The experiment is continued according to M2/c."}}, "note": "pIC50: −log10 of the molar value.", "data": [{"smiles": "CCOC(=O)N[C@H](CC1CCC1)C(=O)N1CCC[C@H]1C(=O)N[C@H](C=O)CCCNC(=N)N", "note": "[Example 1, Ethoxycarbonyl-3-cyclobutyl-D-alanyl-L-prolyl-L-arginine aldehyde]", "values": [{"measurement": "pIC50", "setting": "citrate plasma", "result": 6.46}, {"measurement": "pIC50", "setting": "clot-bound fXa", "result": "> 6.00"}, {"measurement": "pIC50", "setting": "clot-bound thrombin", "result": 6.41}]}]}
